Reference: patent US4379159A, “Antiinflammatory 2-substituted-thio-4,5-dihydro-4,5-diaryl-1H-imidazoles” (E. I. Du Pont de Nemours & Company, priority 1980, dated 1983)

How the values were obtained:
[1] = test system: adjuvant-induced arthritis in rats; test: Established Adjuvant-Induced Arthritis in Rats; format: in vivo, rat (Lewis (Wistar) male rats); conditions: oral gavage once daily 7 days (days 14-20), paw volume on day 21; for ED50: Rattus norvegicus, ED50% for decrease from control paw volume, estimated by inspection of dose-response regression lines
adjuvant arthritis = conditions: background statement; cited from earlier work
arthritis = conditions: background statement; cited from earlier work

Cl.FC(F)(F)CSC1=NC(c2ccc(Cl)cc2)C(c2ccc(Cl)cc2)N1 (centres unmarked) [Example 3, 4,5-Bis(4-chlorophenyl)-4,5-dihydro-2-(2,2,2-trifluoroethylthio)-1H-imidazole Hydrochloride]
ED50 [1]: 25 mg/kg

C=CCSC1=NC(c2ccc(Cl)cc2)C(c2ccc(Cl)cc2)N1.Cl (centres unmarked) [Example 2, 4,5-Bis(4-chlorophenyl)-4,5-dihydro-2-(allylthio)-1H-imidazole Hydrochloride]
percent reduction in paw volume at the indicated dose ([1]; at 25 mg/kg): 28%

CSC1=NC(c2ccc(Cl)cc2)C(c2ccc(Cl)cc2)N1.Cl (centres unmarked) [Example 1, 4,5-Bis(4-chlorophenyl)-4,5-dihydro-2-(methylthio)-1H-imidazole Hydrochloride]
ED50 [1]: 60 mg/kg

c1ccc([C@H]2CN3CCSC3=N2)cc1 [Levamisole, 2,3,5,6-Tetrahydro-6-phenylimidazole-[2,1-b]thiazole]
activity in an adjuvant arthritis test (adjuvant arthritis): inactive | clinical efficacy as an antiarthritic (arthritis): has shown clinical efficacy
